According to patent US5047433A, “N-alkyl derivatives of 2-amino-6,7-dimethoxy tetraline and pharmaceutical compositions having antihypertensive activity containing same” (Sigma-Tau Industrie Farmaceutiche Riunite S.p.A., priority 1986, dated 1991):
Counter-ions that a name gives are not always drawn. Like-named read-outs stand apart in the source and are kept apart here.

Assays:
[1] = test system: Hypertensive SHR rats; assay: Non-invasive measure of arterial pressure in genetically hypertensive (SHR) rats; type: in vivo, rat (male SHR); settings: oral, 40 mg/kg
Description: Male SHR rats (Charles River) of 4-6 months were used in this test. The compounds listed were dissolved in either 0.9% saline or twice distilled water and administered via the oral route (10-40 mg/5 ml/kg).
The animals, housed in individual cages at 23° C. and 60% humidity, had free access to food and drinking water. A BP recorder (Letica) equipped with a two-way polygraph was used. The systolic and diastolic pressure and the heart rate were recorded. The animals, a few days before the test began, were accustomed to be constrained on a heating plate (at 38° C.±1° C. for 20 minutes).
During the pre-tests, assessments were made at time 0 (8^30 -9^30 a.m.) and after 2 and 4 hours.
Every assessment was the average of 3-5 measures and the maximum residence time of the animal in the thermostatized chamber (for the whole test duration) was 40 minutes; the time interval between administrations of different doses of the same compound was 3 days.
(§1) Student's "t" test was used for assessing the differences with respect to the control group and its own 0 time.

[2] = Tolerability in mice (oral and intravenous); design: species or system mouse (Male Albino Swiss); settings: mouse, in vivo, monitored 7 days
Description: Male Albino Swiss mice weighing 22-24 g were used in this test.
One group of animals (4/does) which had been kept fasting for 18 hours was orally administered the compounds dissolved in twice distilled water. The same compounds dissolved in saline at pH-7 were intravenously injected in a further group of animals which had free access to food and drinking water. All of the animals were monitored for 7 days.

[3] = LD50 in mice (intravenous); settings: mouse, in vivo, Weil's method
Description: LD50 was assessed according to the Carrol S. Weil's method (Biometrics, pages 249-263 (1952)) on male Albino Swiss mice weighing 22-24 g. The compounds dissolved in […] solution were administered via the intravenous route.

[4] = test system: Normotensive cats; assay: Measure of arterial pressure in normotensive cats; type: in vivo, cat; settings: anesthetized cats, crural vein
Description: Normotensive cats of either sex weighing 2.5-3.5 kgs were used in this test.
The animals fasted for 18 hours were anesthetized with Na Nembutal (30 mg/kg) and ethyl urethane (300 mg/kg i.p.). The crural vein and artery of the animals were cannulated, the former for administering the compounds, the latter for monitoring the arterial pressure. The arterial pressure was measured via a mercury gauge connected to a rotating kymograph.
The compounds were dissolved in sterile 0.9% saline and administered at physiological pH in a 0.5 ml/kg volume.

[5] = test system: Hypertensive DOCA rats; assay: Non-invasive measure of arterial pressure in rats made hypertensive (DOCA); type: in vivo, rat (male Wistar); settings: oral, 40 mg/kg, 2-4 hours
Description: Male Wistar rats (Charles River) of 4 months were used in this test.
The compounds listed were solubilized in twice distilled water and administered via the oral route (40 mg/5 ml/kg).
The animals, housed in individual cages at 23° C. and 60% humidity, had free access to food and were made to drink 1% saline solution. The animals were administered 20 mg/kg s.c. of deoxycorticosterone acetate (DOCA) for 14 days on end.
A BP recorder (Letica) equipped with a two-way polygraph was used. The systolic and diastolic pressure, and the heart rate were recorded. The animals, a few days before the test began, were accustomed to be constrained on a heating plate (at 38° C.±1° C. for 20 minutes).
During the pre-test, assessments were made at time 0 (8^30 -9^30 a.m.) and after 2 and 4 hours.
Every assessment was the average of 3-5 measures and the maximum residence time of animal in the thermostatized chamber (for the whole test duration) was 40 minutes; the time interval between administrations of different doses of the same compound was 3 days.
as §1

[6] = test system: Normotensive cats; assay: Measure of arterial pressure in normotensive cats; type: in vivo, cat; settings: dose 40 mg (os); entry (1)
[7] = intravenous, read-out: Tolerability, i.v.
[8] = oral, fasted 18 hours, read-out: Tolerability, os

Structure (SMILES) | MTD at 168 h [2, 7] | MTD at 168 h [2, 8] | LD50 [3] | other results
COc1cc2c(cc1OC)CC(NCC(O)c1ccc(O)cc1)CC2 (stereo not shown) [ST 558, 2-[(N-2-p-hydroxyphenyl-2-ethanol)amino]-6,7-dimethoxy tetraline hydrochloride] | > 50 mg/kg | > 50 mg/kg | – | Arterial pressure in hypertensive SHR rats ([1]; 3 hours): -13 mm Hg; Arterial pressure in hypertensive SHR rats ([1]; 5 hours): -31 mm Hg
COc1cc2c(cc1OC)CC(NCC(O)c1ccc(C)cc1)CC2 (stereo not shown) [ST 563, 2-[(N-2-p-methylphenyl-2-ethanol)amino]-6,7-dimethoxy tetraline] | > 20 mg/kg | > 50 mg/kg | 35.7 mg/kg | Arterial pressure in hypertensive SHR rats ([1]; 2 hours): -65 mm Hg
COc1ccc(C(O)CN(CC2CC2)C2CCc3cc(OC)c(OC)cc3C2)cc1 (stereo not shown) [ST 565, 2-[(N-methylcyclopropyl, N-p-methoxy-phenyl-2-ethanol)amino]-6,7-dimethoxy tetraline hydrochloride] | – | > 50 mg/kg | – | –
CCCN(CC(O)c1ccccc1)C1CCc2cc(OC)c(OC)cc2C1 (stereo not shown) [ST 566, 2-[(N-propyl,N-phenyl-2-ethanol)amino]-6,7-dimethoxy tetraline hydrochloride] | > 20 mg/kg | > 50 mg/kg | – | –
COc1cc2c(cc1OC)CC(N(CC1CC1)CC(O)c1ccccc1)CC2 (stereo not shown) [ST 567, 2-[(N-methylcyclopropyl, N-phenyl-2-ethanol)amino]-6,7-dimethoxy tetraline hydrochloride] | > 15 mg/kg | > 50 mg/kg | 30.2 mg/kg | –
CCN(CC(O)c1ccccc1)C1CCc2cc(OC)c(OC)cc2C1 (stereo not shown) [ST 570, 2-[(N-ethyl, N-2-phenyl-2-ethanol)amino]-6,7-dimethoxy tetraline hydrochloride] | > 20 mg/kg | > 50 mg/kg | 34.9 mg/kg | Arterial pressure in hypertensive SHR rats ([1]; 2 hours): -29 mm Hg; Arterial pressure in normotensive cats, hypotension ([4]; dose 1 mg/kg): 64 mm Hg; Times of effect duration (hypotension in normotensive cats) ([4]; dose 1 mg/kg): L (long >30 minutes)
CCCN(CC(O)c1ccc(C)cc1)C1CCc2cc(OC)c(OC)cc2C1 (stereo not shown) [ST 571, 2-[(N-propyl,N-2-p-methylphenyl-2-ethanol)amino]-6,7-dimethoxy tetraline hydrochloride] | > 30 mg/kg | > 50 mg/kg | 42.3 mg/kg | Times of effect duration (hypotension in normotensive cats) ([4]; dose 1-2-4 mg/kg): M/B
COc1cc2c(cc1OC)CC(N(CC1CC1)CC(O)c1ccc(C)cc1)CC2 (stereo not shown) [ST 574, 2-[(N-methylcyclopropyl, N-p-methylphenyl-2-ethanol)amino]-6,7-dimethoxy tetraline hydrochloride] | > 30 mg/kg | > 50 mg/kg | – | Times of effect duration (hypotension in normotensive cats) ([4]; dose 1-2-4 mg/kg): M/B
CCN(CCc1ccccc1)C1CCc2cc(OC)c(OC)cc2C1 (stereo not shown) [ST 577, 2-[(N-ethyl, N-2-phenylethyl)amino]-6,7-dimethoxy tetraline hydrochloride] | > 20 mg/kg | > 50 mg/kg | 35.7 mg/kg | Arterial pressure in normotensive cats, hypotension ([4]; dose 1 mg/kg): 20 mm Hg; Times of effect duration (hypotension in normotensive cats) ([4]; dose 1 mg/kg): L (long >30 minutes); Arterial pressure in normotensive cats, hypotension ([4]; dose 2 mg/kg): 44 mm Hg; Times of effect duration (hypotension in normotensive cats) ([4]; dose 2 mg/kg): M (average ≤30 minutes)
COc1ccc(C(O)CNC2CCc3cc(OC)c(OC)cc3C2)cc1 (stereo not shown) [ST 578, 2-[(N-2-p-methoxyphenyl-2-ethanol)amino]-6,7-dimethoxy tetraline hydrochloride] | > 15 mg/kg | > 50 mg/kg | 27.7 mg/kg | Arterial pressure in hypertensive SHR rats ([1]; 3 hours): -40 mm Hg; Arterial pressure in hypertensive SHR rats ([1]; 5 hours): -27 mm Hg; Times of effect duration (hypotension in normotensive cats) ([4]; dose 1-2-4 mg/kg): B/L
COc1cc2c(cc1OC)CC(NCC(O)c1ccccc1)CC2 (stereo not shown) [ST 579, 2-[(N-2-phenyl-2-ethanol)amino]-6,7-dimethoxy tetraline hydrochloride] | > 20 mg/kg | > 50 mg/kg | 35.7 mg/kg | Arterial pressure in hypertensive SHR rats ([1]; 2 hours): -26 mm Hg; Arterial pressure in hypertensive DOCA rats [5]: -20 mm Hg
COc1cc2c(cc1OC)CC(NCC(O)c1ccc(C(F)(F)F)cc1)CC2 (stereo not shown) [ST 590, 2-[(N-2-p-trifluoromethylphenyl-2-ethanol)amino]6,7-dimethoxy tetraline hydrochloride] | > 50 mg/kg | > 50 mg/kg | – | Arterial pressure in normotensive cats, hypotension [6]: 39 mm Hg; Times of effect duration (hypotension in normotensive cats) [6]: L (long >30 minutes)
CCN(CC(O)c1ccc(C(F)(F)F)cc1)C1CCc2cc(OC)c(OC)cc2C1 (stereo not shown) [ST 592, 2-[(N-ethyl, N-2-p-trifluoromethylphenyl-2-ethanol)-amino]-6,7-dimethoxy tetraline hydrochloride] | > 30 mg/kg | > 50 mg/kg | – | –
COc1cc2c(cc1OC)CC(NCC(O)c1ccc(F)cc1)CC2 (stereo not shown) [ST 593, 2-[(N-2-p-fluorophenyl-2-ethanol)amino]-6,7-dimethoxy tetraline hydrochloride] | > 50 mg/kg | > 50 mg/kg | – | Arterial pressure in normotensive cats, hypotension ([4]; dose 1 mg/kg): 12 mm Hg; Arterial pressure in normotensive cats, hypotension ([4]; dose 2 mg/kg): 16 mm Hg; Arterial pressure in normotensive cats, hypotension ([4]; dose 4 mg/kg): 26 mm Hg; Times of effect duration (hypotension in normotensive cats) ([4]; dose 1-2-4 mg/kg): M/B
COc1cc2c(cc1OC)CC(NCC(OC)c1ccccc1)CC2 (stereo not shown) [ST 600, 2-[(N-2-phenyl-2-methoxyethyl)amino]-6,7-dimethoxy tetraline hydrochloride] | > 20 mg/kg | > 50 mg/kg | 29.7 mg/kg | Arterial pressure in normotensive cats, hypotension ([4]; dose 2 mg/kg): 28 mm Hg; Times of effect duration (hypotension in normotensive cats) ([4]; dose 2 mg/kg): B (short <5 minutes); Arterial pressure in normotensive cats, hypotension ([4]; dose 4 mg/kg): 54 mm Hg; Times of effect duration (hypotension in normotensive cats) ([4]; dose 4 mg/kg): M (average ≤30 minutes)
